Experimental data: patent US5552552A, “Crystalline salts of optically active aminocoumaran derivatives, their production and use” (Takeda Chemical Industries, Ltd., priority 1992, dated 1996)
Where a name gives a salt, the structure may show the parent alone.

Tests used:
[1] = Stability / hygroscopicity (no method); assay type: physicochemical; conditions: in words; derivative (B), racemate; no data
[2] = in words; free form (racemate), as described in EP-A-0483772; cited from earlier work
[3] = test system: behavioral change induced by spinal intrathecal injection of FeCl2 (ferrous chloride); assay: Change of behavior induced by spinal intrathecal injection of FeCl2 in mice; assay type: in vivo, male Slc:ICR mice (printed "SIc: IcR mice"); conditions: 25 mg/kg oral; for Mean Score, 25 mg/kg Administered: behavior observed 15 min to 1 h after intrathecal 50 mM FeCl2, 5 μl/mouse, 10 mice per group, score 0 (normal) to 5 (death); for Percent Suppression (%): calculated from the mean behavioral scores, FeCl2 intrathecal, mice
From the text: Effect on drugs on the change of behavior induced by spinal in intrathecal injection of FeCl2 in mice.
Male SIc: IcR mice (5 weeks) (10 mice per group) were used. […] The following criteria were used to score behavioral changes.
1: Frequent bites to lower limbs and lower abdomen.
2: One of the following three responses is seen: a) Violent bites to lower half of body, with occasionally rolling b) Hypersensitive aggressive behavior in response to external stimulation […]
4: Tonic convulsion, or unilateral or bilateral limb paralysis […]
Percent inhibitions were calculated from the scores obtained as above (percent inhibition=[(5-score)/5]×100). The subject compound salt was orally administered during the 30-minute period following administration of ferrous chloride.

Structure (SMILES) | hygroscopicity and stability [1] | water solubility of the free form [2] | Mean Score, 25 mg/kg Administered [3] | Percent Suppression (%) [3] [%]
Cc1c(C)c2c(c(C)c1N)CC(C)(CN1CCC(c3ccccc3)CC1)O2 (racemic) [Derivative (B), 5-amino-2,4,6,7-tetramethyl-2-(4-phenylpiperidinomethyl)-2,3-dihydrobenzo[b]furan] | hygroscopic and hence unstable | sparingly water-soluble | – | –
Cc1c(C)c2c(c(C)c1N)C[C@@](C)(CN1CCC(c3ccccc3)CC1)O2 [Example 3, (S)--(+)-5-amino-2,4,6,7-tetramethyl-2-(4-phenylpiperidinomethyl)-2,3-dihydrobenzo [b]furan dihydrochloride] | – | – | 0.2 | 96
Cc1c(C)c2c(c(C)c1N)C[C@](C)(CN1CCC(c3ccccc3)CC1)O2 [Example 4, (R)--(-)-5-amino-2,4,6,7-tetramethyl-2-(4-phenylpiperidinomethyl)-2,3-dihydrobenzo [b]furan dihydrochloride] | – | – | 1.3 | 72.3
